Measurements from publication PMC5849682, “Novel 2-pheynlbenzofuran derivatives as selective butyrylcholinesterase inhibitors for Alzheimer’s disease” (Scientific Reports, 2018).

Experiments:
EeAChE = molecular target: T1, EeAChE (Electrophorus electricus, UniProt O42275); test: biochemical; type: biochemical; conditions: for IC50: mean ± SD, n = 3
T1 construct: purchased Sigma-Aldrich
Protocol: (§1) The enzymes and reagents for biochemical assays were obtained from Sigma-Aldrich. Kinetic assays of cholinesterase activity were performed using Ellman’s method and analyzed as previously described. Briefly, in the microplate assay the reaction mixture contained phosphate buffer (0.1 M, pH 8.0), AChE or BChE solution (0.3 or 0.15 U/mL respectively), 5,5′-dithiobis-(2-nitrobenzoic) acid (DTNB; 1.5 mM), and inhibitor dissolved in 1% DMSO at the desired concentrations or DMSO alone (control) in a final volume of 0.2 mL. […] The activity of the enzymes was performed at 25 °C.
(§2) Acetylcholinesterase was from Electrophorus electricus (EeAChE), while butylcholinesterase was from equine serum (eqBChE) or human serum (hBChE).
(§3) IC50 values were calculated by the interpolation of dose-response curves using GraphPad Prism 6 (Graphpad Software, San Diego, California, USA).

eqBChE [1] = molecular target: T2, eqBChE (Equus caballus, UniProt P81908); test: biochemical; type: biochemical; conditions: for Selectivity to eqBChE: IC50 for AChE/IC50 for BChE; for IC50: mean ± SD, n = 3
T2 construct: butylcholinesterase was from equine serum (eqBChE); purchased Sigma-Aldrich; host or cells: equine serum
T2 sequence (P81908 whole entry): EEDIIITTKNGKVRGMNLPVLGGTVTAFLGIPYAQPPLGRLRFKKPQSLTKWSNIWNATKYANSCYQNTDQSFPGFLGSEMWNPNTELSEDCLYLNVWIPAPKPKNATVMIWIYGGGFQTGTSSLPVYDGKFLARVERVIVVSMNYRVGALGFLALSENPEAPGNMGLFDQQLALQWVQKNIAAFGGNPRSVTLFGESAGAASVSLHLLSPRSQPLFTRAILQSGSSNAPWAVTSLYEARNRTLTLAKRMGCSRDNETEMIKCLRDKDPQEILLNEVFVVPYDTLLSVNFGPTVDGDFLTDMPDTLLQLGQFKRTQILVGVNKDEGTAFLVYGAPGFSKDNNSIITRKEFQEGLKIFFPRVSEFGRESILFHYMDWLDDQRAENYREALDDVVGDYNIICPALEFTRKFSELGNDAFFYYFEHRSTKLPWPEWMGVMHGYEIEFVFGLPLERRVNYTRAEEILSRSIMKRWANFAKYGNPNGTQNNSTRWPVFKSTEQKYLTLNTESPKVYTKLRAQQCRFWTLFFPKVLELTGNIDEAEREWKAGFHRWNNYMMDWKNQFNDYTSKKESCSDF
Protocol: as §1, §2, §3

[2] = ABTS radical-scavenging antioxidant assay; conditions: mean ± SD of three independent experiments
Protocol: Total free radical-scavenging capacity of the compounds was determined by ABTS^.+ [2,2′-azinobis-(3-ethylbenzothiazoline-6-sulfonic acid)] method using Trolox as antioxidant standard, as previously reported.

hBChE = molecular target: T3, hBChE (Homo sapiens, UniProt P06276); test: Cholinesterase assay (Ellman's method), hBChE; type: biochemical; conditions: for IC50: mean ± SD, n = 3; for hBChE inhibitory activity, times more active than galantamine: relative to reference compound galantamine, same assay conditions
T3 construct: butylcholinesterase was from equine serum (eqBChE) or human serum (hBChE); purchased Sigma-Aldrich; host or cells: human serum
T3 sequence (P06276 29-602): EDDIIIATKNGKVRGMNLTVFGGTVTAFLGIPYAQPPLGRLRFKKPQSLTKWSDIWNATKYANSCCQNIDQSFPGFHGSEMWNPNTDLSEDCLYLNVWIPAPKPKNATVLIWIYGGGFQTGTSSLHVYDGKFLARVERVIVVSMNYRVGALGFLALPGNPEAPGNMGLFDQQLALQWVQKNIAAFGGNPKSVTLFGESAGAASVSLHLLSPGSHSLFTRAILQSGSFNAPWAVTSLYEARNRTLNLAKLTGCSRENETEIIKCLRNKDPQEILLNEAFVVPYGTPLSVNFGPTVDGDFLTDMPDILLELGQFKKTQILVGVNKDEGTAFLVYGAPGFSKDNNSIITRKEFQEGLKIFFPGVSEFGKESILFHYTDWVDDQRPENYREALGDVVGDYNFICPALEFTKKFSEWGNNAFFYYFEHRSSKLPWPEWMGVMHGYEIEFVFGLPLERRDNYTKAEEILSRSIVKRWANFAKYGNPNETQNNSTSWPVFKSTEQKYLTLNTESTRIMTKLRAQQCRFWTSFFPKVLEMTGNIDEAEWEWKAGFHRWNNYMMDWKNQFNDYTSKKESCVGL
Protocol: as §1, §2, §3

eqBChE [3] = molecular target: T2, eqBChE; test: Kinetic study of eqBChE inhibition (Lineweaver-Burk plots); type: biochemical; conditions: for type of inhibition: Lineweaver-Burk plot analysis; for KIS (binding with the enzyme-substrate complex): secondary plot of 1/Vmax versus compound concentration; for KIS (binding with the enzyme-substrate complex) / Ki: substrate BTCI; for Ki: secondary plot of slope (Km/Vmax) versus compound concentration, read-out: KI (binding with the free enzyme)
Protocol: . Further to evaluate the selective characteristics and type of inhibition, we investigated the kinetic behaviour of eqBChE at different concentration of S-butyrylthiocholine iodide (BTCI) and inhibitors by Lineweaver-Burk plot analysis (Fig. 2).
The enzymes and reagents for biochemical assays were obtained from Sigma-Aldrich. Kinetic assays of cholinesterase activity were performed using Ellman’s method and analyzed as previously described. Briefly, in the microplate assay the reaction mixture contained phosphate buffer (0.1 M, pH 8.0), AChE or BChE solution (0.3 or 0.15 U/mL respectively), 5,5′-dithiobis-(2-nitrobenzoic) acid (DTNB; 1.5 mM), and inhibitor dissolved in 1% DMSO at the desired concentrations or DMSO alone (control) in a final volume of 0.2 mL. Finally, acetylthiocholine iodide (ATCI) or S-butyrylthiocholine iodide (BTCI) (1.5 mM) as the substrate was added to the reaction mixture and the absorbance immediately monitored at 405 nm. The activity of the enzymes was performed at 25 °C.
Kinetic characterization was performed by constructing Lineweaver-Burk plots by plotting 1/V vs 1/[S] in the presence of different concentrations of inhibitor and substrate. Kinetics constants were determined by the replots of the Slopes (KM/Vmax) or 1/Vmax versus the inhibitor concentration.

NSC-34 cells = test: MTT cell viability assay; type: cell-based, Mouse; conditions: 0–100 μM, 24 h, at the concentration in which eqBChE activity was inhibited
Protocol: After obtaining encouraging results from the inhibitory assay experiments, biosafety effectiveness of the two promising compounds (15 and 17) was further evaluated. Cells were treated with different concentration of each compound (0–100 μM) for 24 h and their potential cytotoxic effect on NSC-34 cells was determined by using MTT assay. Viability of the cells treated with the compounds 15 and 17 and comparison to the control cells were performed (Fig. 4).
Mouse motor neuron like cell line (NSC-34) was purchased from the American Type Culture Collection (ATCC, Manassas, Virginia, USA). The cells were cultured in Dulbecco’s Modified Eagle Medium (DMEM) containing 10% fetal bovine serum (FBS; Gibco, NY, USA), and 1% penicillin/streptomycin at 37 °C in a humidified atmosphere with 5% CO2. Cell viability was detected by the colorimetric 3-(4,5-dimethylthiazol-2-yl)-2,5-diphenyltetrazolium bromide (MTT) assay. This is a colorimetric assay for measuring the activity of mitochondrial enzymes in living cells that convert MTT into purple formazan crystals. Briefly, cells were seeded in a 96-well plate (10^4 cells/well) and incubated with samples at concentration ranging from 10 to 100 μM for […]. […] The resulting violet formazan precipitates were dissolved in isopropanol and the absorbance of each well was determined at 590 nm using a microplate reader with a 630 nm reference.

BChE = conditions: previous study ref 34; cited from earlier work

T1 sequence (O42275 24-633): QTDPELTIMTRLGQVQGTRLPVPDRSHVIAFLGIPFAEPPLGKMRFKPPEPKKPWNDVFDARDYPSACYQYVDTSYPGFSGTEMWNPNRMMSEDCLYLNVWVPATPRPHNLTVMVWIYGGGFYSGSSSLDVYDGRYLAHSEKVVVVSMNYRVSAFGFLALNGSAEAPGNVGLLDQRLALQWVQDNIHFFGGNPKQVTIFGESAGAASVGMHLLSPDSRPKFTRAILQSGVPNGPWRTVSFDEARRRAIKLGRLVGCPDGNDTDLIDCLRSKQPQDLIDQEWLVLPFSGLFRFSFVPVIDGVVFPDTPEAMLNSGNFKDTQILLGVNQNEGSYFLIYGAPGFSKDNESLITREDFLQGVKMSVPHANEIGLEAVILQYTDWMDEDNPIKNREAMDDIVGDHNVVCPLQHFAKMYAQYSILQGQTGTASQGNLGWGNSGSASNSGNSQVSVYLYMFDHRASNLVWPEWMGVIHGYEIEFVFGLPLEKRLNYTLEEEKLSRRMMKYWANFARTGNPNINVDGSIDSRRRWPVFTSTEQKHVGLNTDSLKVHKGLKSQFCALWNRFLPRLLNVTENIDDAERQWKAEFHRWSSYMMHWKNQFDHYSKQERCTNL

Compound	IC50 (EeAChE) [µM]	Selectivity to eqBChE (eqBChE [1])	IC50 (eqBChE [1]) [µM]	EC50 [2] [µM]	further results
Cc1cccc2cc(-c3cc(O)c(O)c(O)c3)oc12 [Compound 26]	66 ± 5.4	3.3	19.8 ± 1.2	6.6 ± 0.24	–
Oc1cc(-c2cc3cccc(Cl)c3o2)cc(O)c1O [Compound 22]	50 ± 3.3	1.9	25.7 ± 1.6	26.3 ± 1.46	–
Oc1cc(-c2cc3cc(Br)ccc3o2)cc(O)c1O [Compound 25]	25 ± 1.9	0.90	27.6 ± 1.9	9.46 ± 0.68	–
Oc1cc(O)cc(-c2cc3cc(Br)ccc3o2)c1 [Compound 18]	66 ± 4.2	2.2	30 ± 2.7	17.5 ± 0.93	–
Oc1cc(-c2cc3ccccc3o2)cc(O)c1O [Compound 28]	> 100	–	> 100	52.8 ± 2.43	cholinesterase inhibitory activity (EeAChE) (EeAChE): did not exert any cholinesterase inhibitory activity; cholinesterase inhibitory activity (eqBChE) (eqBChE [1]): did not exert any cholinesterase inhibitory activity
Oc1cc(O)cc(-c2cc3cccc(Cl)c3o2)c1 [Compound 15]	≥ 100	>16.0	6.23 ± 0.43	14.9	IC50 (hBChE): 27.5 ± 1.82 µM; hBChE inhibitory activity, times more active than galantamine (hBChE): 2 times; type of inhibition (eqBChE [3]): mixed-type inhibitor; KIS (binding with the enzyme-substrate complex) (eqBChE [3]): 8.66 µM; Ki (eqBChE [3]): 13.9 µM; cytotoxic effect (NSC-34 cells): no considerable cytotoxic effect
Cc1cccc2cc(-c3cc(O)cc(O)c3)oc12 [Compound 19]	> 100	>10.0	10 ± 0.96	19.3 ± 1.43	–
Oc1cc(O)cc(-c2cc3cccc(Br)c3o2)c1 [Compound 17]	100 ± 6.1	28.0	3.57 ± 0.25	16.7 ± 1.31	eqBChE inhibitory activity, times more active than galantamine (eqBChE [1]; relative to reference compound galantamine): ~8 times; IC50 (hBChE): 27.5 ± 1.53 µM; hBChE inhibitory activity, times more active than galantamine (hBChE): 2 times; type of inhibition (eqBChE [3]): non-competitive inhibitor; KIS (binding with the enzyme-substrate complex) (eqBChE [3]): 4.7 µM; Ki (eqBChE [3]): 4.3 µM; cytotoxic effect (NSC-34 cells): no considerable cytotoxic effect
Oc1cc(-c2cc3cc(Cl)ccc3o2)cc(O)c1O [Compound 23]	30 ± 2.8	0.78	38.2 ± 2.4	12.5 ± 0.44	–
Oc1cc(O)cc(-c2cc3ccccc3o2)c1 [Compound 21]	> 100	>4.0	25.2 ± 1.3	23.2 ± 1.54	–
Cc1ccc2oc(-c3cc(O)c(O)c(O)c3)cc2c1 [Compound 27]	≥ 100	>6.2	16.1 ± 1.05	8.93 ± 0.57	–
Oc1cc(O)cc(-c2cc3cc(Cl)ccc3o2)c1 [Compound 16]	80 ± 7.3	2.2	36.6 ± 2.9	17.6 ± 0.82	–
Cc1ccc2oc(-c3cc(O)cc(O)c3)cc2c1 [Compound 20]	> 100	>8.0	12.5 ± 1.29	18.2 ± 0.86	–
Cc1c(C)c2c(c(C)c1O)CCC(C)(C(=O)O)O2 (stereo not drawn) [Trolox, reference compound]	–	–	–	13 ± 1.1	–
Oc1cc(-c2cc3cccc(Br)c3o2)cc(O)c1O [Compound 24]	37 ± 2.6	2.0	18.4 ± 0.93	15.4 ± 0.81	–
